Laboratory results taken from the supplement of paper PMC11061612.

Assays:
[1] = system: HCC-78 (Lung Adenocarcinoma); assay: combination Emax (second highest fraction inhibited in the dose matrix, 72 h); higher = more inhibition; extreme values may be limits of the assay
How it was run: (§1)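 After 24 hours at 37°C and 5% CO2 in 1536-well plates, cells in DMEM/F12 or RPMI plus 10% FBS received two-drug dose matrices for 72 hours. Viability came from CellTiter-Glo 2.0 luminescence and was scaled as inhibition, anchored at 0 by vehicle wells and at 1 by blank wells. Combination Emax is taken as the second-highest inhibition in the matrix, and Bliss excess as the observed combination effect less EA + EB − EA·EB, with EA and EB the single-agent effects.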

[2] = system: LS-180 (Colorectal Carcinoma); assay: as above
How it was run: as §1

[3] = system: DoTc2-4510 (Cervical Carcinoma); assay: as above
How it was run: as §1

NB10 (Neuroblastoma) [4] = assay: as above
How it was run: as §1

[5] = system: HCC-78 (Lung Adenocarcinoma); assay: Bliss excess, mean over the matrix (fraction); higher = more synergy
How it was run: as §1

KELLY (Neuroblastoma) = assay: as above
How it was run: as §1

T98G (Glioblastoma) = assay: as above
How it was run: as §1

[6] = system: NCI-H82 (Small Cell Lung Carcinoma); assay: as above
How it was run: as §1

[7] = system: CaR-1 (Colorectal Carcinoma); assay: as above
How it was run: as §1

[8] = system: TE-9 (Esophageal Squamous Cell Carcinoma); assay: as above
How it was run: as §1

[9] = system: LS-180 (Colorectal Carcinoma); assay: as above
How it was run: as §1

[10] = system: DoTc2-4510 (Cervical Carcinoma); assay: as above
How it was run: as §1

[11] = system: ME-1 (Acute Myeloid Leukemia); assay: as above
How it was run: as §1

[12] = system: Hs-578-T (Breast Carcinoma); assay: as above
How it was run: as §1

[13] = system: TE-15 (Esophageal Squamous Cell Carcinoma); assay: as above
How it was run: as §1

HOS (Osteosarcoma) = assay: as above
How it was run: as §1

[14] = system: CAL-148 (Breast Carcinoma); assay: as above
How it was run: as §1

[15] = system: CCRF-CEM (T-Lymphoblastic Leukemia); assay: as above
How it was run: as §1

[16] = system: RO82-W-1 (Thyroid Gland Carcinoma); assay: as above
How it was run: as §1

NB10 (Neuroblastoma) [17] = assay: as above
How it was run: as §1
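Wherever Bliss excess, mean over the matrix is given: after 72 h of two-drug dosing.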

Structure (SMILES)	combination Emax [1]	combination Emax [2]	combination Emax [3]	combination Emax (NB10 (Neuroblastoma) [4])	Bliss excess [5]	Bliss excess (KELLY (Neuroblastoma))	Bliss excess (T98G (Glioblastoma))	Bliss excess [6]	Bliss excess [7]	Bliss excess [8]	Bliss excess [9]	Bliss excess [10]	Bliss excess [11]	Bliss excess [12]	Bliss excess [13]	Bliss excess (HOS (Osteosarcoma))	Bliss excess [14]	Bliss excess [15]	Bliss excess [16]	Bliss excess (NB10 (Neuroblastoma) [17])
C=CCn1c(=O)c2cnc(Nc3ccc(N4CCN(C)CC4)cc3)nc2n1-c1cccc(C(C)(C)O)n1 [AZD1775] + CCc1c2c(nc3ccc(O)cc13)-c1cc3c(c(=O)n1C2)COC(=O)[C@]3(O)CC [SN-38] (first compound max 1 µM, partner max 0.3 µM)	0.954	0.806	0.92	0.853	0.0002	-0.0534	0.0057	-0.0569	-0.0429	-0.0022	-0.115	-0.0173	-0.0047	0.0934	-0.0211	-0.0934	-0.0022	-0.0423	-0.0352	-0.141
C=CCn1c(=O)c2cnc(Nc3ccc(N4CCN(C)CC4)cc3)nc2n1-c1cccc(C(C)(C)O)n1 [AZD1775] + Nc1ccn([C@@H]2O[C@H](CO)[C@@H](O)C2(F)F)c(=O)n1 [Gemcitabine] (first compound max 1 µM, partner max 0.3 µM)	0.851	0.754	0.729	0.933	0.0795	0.0306	0.0257	-0.0404	-0.0001	-0.0253	-0.0906	0.033	-0.0044	0.045	0.042	0.0754	0.0035	0.0584	-0.0271	0.0509
CN(CCO)CC[C@H](CSc1ccccc1)Nc1ccc(S(=O)(=O)NC(=O)c2ccc(N3CCC([C@@H](O)c4ccccc4-c4ccc(Cl)cc4)CC3)cc2)cc1S(=O)(=O)C(F)(F)F [AZD4320] + CC(=O)O[C@H]1C(=O)[C@@]2(C)[C@H]([C@H](OC(=O)c3ccccc3)[C@]3(O)C[C@H](OC(=O)[C@H](O)[C@@H](NC(=O)c4ccccc4)c4ccccc4)C(C)=C1C3(C)C)[C@]1(OC(C)=O)CO[C@@H]1C[C@@H]2O [Paclitaxel] (first compound max 1 µM, 7x7, partner max 3 µM)	0.803	0.94	0.992	0.912	0.168	-0.0068	0.0613	-0.0552	0.0892	0.0929	-0.0382	0.111	0.0994	0.047	0.0118	0.184	0.0761	-0.0072	0.332	0.0462
CN(CCO)CC[C@H](CSc1ccccc1)Nc1ccc(S(=O)(=O)NC(=O)c2ccc(N3CCC([C@@H](O)c4ccccc4-c4ccc(Cl)cc4)CC3)cc2)cc1S(=O)(=O)C(F)(F)F [AZD4320] + CS(=O)(=O)CCNCc1ccc(-c2ccc3ncnc(Nc4ccc(OCc5cccc(F)c5)c(Cl)c4)c3c2)o1 [Lapatinib] (first compound max 1 µM, 7x7, partner max 10 µM)	0.238	0.505	0.974	0.705	-0.0248	0.0272	0.0029	0.0747	-0.0122	0.0137	-0.0521	0.051	0.0937	0.0188	-0.0004	-0.0381	-0.0411	0.0305	0.0002	-0.0204
CN(CCO)CC[C@H](CSc1ccccc1)Nc1ccc(S(=O)(=O)NC(=O)c2ccc(N3CCC([C@@H](O)c4ccccc4-c4ccc(Cl)cc4)CC3)cc2)cc1S(=O)(=O)C(F)(F)F [AZD4320] + Nc1ccn([C@@H]2O[C@H](CO)[C@@H](O)C2(F)F)c(=O)n1 [Gemcitabine] (first compound max 1 µM, 7x7, partner max 0.3 µM)	0.852	0.66	0.882	0.858	-0.0215	0.0014	-0.0265	0.016	0.0125	0.0151	-0.0907	0.0764	0.0049	0.14	0.0164	0.0045	0.0502	0.0061	-0.0237	-0.0457
Cc1c2c(nn1C)CSCc1cc(n(C)n1)CSc1cc(c3ccccc3c1)OCCCc1c(C(=O)O)n(C)c3c-2c(Cl)ccc13 [AZD5991] + CC(=O)O[C@H]1C(=O)[C@@]2(C)[C@H]([C@H](OC(=O)c3ccccc3)[C@]3(O)C[C@H](OC(=O)[C@H](O)[C@@H](NC(=O)c4ccccc4)c4ccccc4)C(C)=C1C3(C)C)[C@]1(OC(C)=O)CO[C@@H]1C[C@@H]2O [Paclitaxel] (first compound max 1 µM, 7x7, partner max 3 µM)	0.433	0.822	0.544	0.915	0.11	0.0544	-0.0798	-0.0392	0.038	0.0317	-0.033	-0.0508	-0.0368	0.0368	0.0224	0.103	0.0436	-0.0339	-0.023	0.0264
Cc1c2c(nn1C)CSCc1cc(n(C)n1)CSc1cc(c3ccccc3c1)OCCCc1c(C(=O)O)n(C)c3c-2c(Cl)ccc13 [AZD5991] + CS(=O)(=O)CCNCc1ccc(-c2ccc3ncnc(Nc4ccc(OCc5cccc(F)c5)c(Cl)c4)c3c2)o1 [Lapatinib] (first compound max 1 µM, 7x7, partner max 10 µM)	0.173	0.482	0.549	0.177	-0.0167	0.0879	-0.0233	-0.0161	0.0071	-0.0218	0.0651	-0.0004	-0.0089	-0.0984	-0.012	-0.0365	0.0041	-0.0676	-0.0357	-0.0197
Cc1c2c(nn1C)CSCc1cc(n(C)n1)CSc1cc(c3ccccc3c1)OCCCc1c(C(=O)O)n(C)c3c-2c(Cl)ccc13 [AZD5991] + Nc1ccn([C@@H]2O[C@H](CO)[C@@H](O)C2(F)F)c(=O)n1 [Gemcitabine] (first compound max 1 µM, 7x7, partner max 0.3 µM)	0.787	0.779	0.544	0.778	-0.0102	-0.0253	0.0127	0.003	-0.0383	-0.0201	-0.061	-0.0282	-0.0612	0.0298	0	0.0054	0.122	-0.0164	-0.0453	-0.0006
C[C@@H]1COCCN1c1cc(C2([S@](C)(=N)=O)CC2)nc(-c2ccnc3[nH]ccc23)n1 [AZD6738] + C1CC(C1)(C(=O)[O-])C(=O)[O-].N.N.[Pt+2] [Carboplatin] (first compound max 10 µM, 7x7, partner max 10 µM)	0.662	0.7	0.492	0.689	-0.0401	-0.0516	-0.0401	-0.117	-0.0464	-0.0215	0.0068	-0.0562	-0.0565	-0.0559	-0.0208	-0.0209	-0.11	-0.0161	-0.0333	-0.0562
C[C@@H]1COCCN1c1cc(C2([S@](C)(=N)=O)CC2)nc(-c2ccnc3[nH]ccc23)n1 [AZD6738] + Nc1ccn([C@@H]2O[C@H](CO)[C@@H](O)C2(F)F)c(=O)n1 [Gemcitabine] (first compound max 10 µM, 7x7, partner max 0.3 µM)	0.901	0.819	0.795		0.067	-0.0042	-0.0284	-0.0333	0.0538	0.038	-0.0568	0.118	0.0907	0.012	0.0378	0.134	0.0914	0.0838	-0.018	0.0622
Cc1cc2ncnn2cc1Nc1ncc2c(n1)n(C1CCOCC1)c(=O)n2C [AZD7648] + COc1cc([C@@H]2c3cc4c(cc3[C@@H](O[C@@H]3O[C@@H]5CO[C@@H](C)O[C@H]5[C@H](O)[C@H]3O)[C@H]3COC(=O)[C@H]23)OCO4)cc(OC)c1O [Etoposide] (first compound max 10 µM, 7x7, partner max 10 µM)	0.774	0.729	0.721	0.872	0.0695	0.0734	0.12	0.0583	0.0253	0.0158	0.0183	0.116	-0.0301	0.0777	0.0823	0.0772	0.163	0.104	0.0049	0.0154
C[C@@H](Nc1cc(F)cc(F)c1)c1cc(C(=O)N(C)C)cc2c(=O)cc(N3CCOCC3)oc12 [AZD8186] + C1CN(CCC1(C(=O)N[C@@H](CCO)C2=CC=C(C=C2)Cl)N)C3=NC=NC4=C3C=CN4 [AZD5363] (first compound max 10 µM, 7x7, partner max 10 µM)	0.34	0.419	0.286	0.228	0.0408	-0.0246	0.0381	-0.0759	0.0054	-0.0405	-0.0425	-0.0017	-0.052	-0.0815	0.0126	-0.0447	-0.0019	0.007	-0.0132	-0.0398
N#Cc1cnc(Nc2cc(NC[C@H]3CNCCO3)c(C(F)(F)F)cn2)cn1 [SRA737] + CCc1c2c(nc3ccc(O)cc13)-c1cc3c(c(=O)n1C2)COC(=O)[C@]3(O)CC [SN-38] (first compound max 10 µM, 7x7, partner max 0.3 µM)	0.959	0.74	0.936	0.769	-0.0447	-0.0429	0.0065	0.0325	-0.0711	-0.0181		0.0093	0.0352	0.114	-0.0928	0.0136	-0.0602	-0.034	-0.04	-0.141
